PMC5696560 (Bioorganic & Medicinal Chemistry Letters, 2017)
pIC50: −log10 of the molar value. ≈ marks a conversion by molar mass, not a printed value.

How the values were obtained:
M.tb strain H37Rv [1] = test: MICs determined at Tibotec (slightly different protocol); assay type: cell-based; conditions: Mycobacterium tuberculosis, MICs determined at Tibotec (Mechelen, Belgium), read-out: MIC90 (MABA, footnote d)
Source text: Given that good activity had been reported for furan 2 (albeit in M. smegmatis),[11] we evaluated a series of both 2- and 3-furyl analogues bearing different C-unit substituents.

M.tb strain H37Rv [2] = test: LORA: inhibition of growth of M.tb H37Rv under non-replicating conditions; assay type: cell-based; conditions: Mycobacterium tuberculosis
Procedure: The compounds were evaluated for their inhibition of growth (measured as MIC90 values in µg/mL) against M.tb (strain H37Rv) under both replicating (MABA)[16] or non-replicating (LORA)[17] conditions. […] In a search for less lipophilic analogues, we prepared and evaluated compounds where this phenyl B-ring unit was replaced with different heterocycles of varying lipophilicity (Table 1).

M.tb strain H37Rv [3] = test: MABA: inhibition of growth of M.tb H37Rv under aerobic (replicating) conditions; assay type: cell-based; conditions: for MIC90: Mycobacterium tuberculosis, H37RV; for anti-M.tb activity (in words): M.tb H37Rv, comparison with 1
[4] = human, microsomes
CYP 3A4 = CYP 3A4 (Homo sapiens, UniProt P08684); test: Inhibition of CYP 3A4; assay type: in vitro ADME; conditions: 20 min exposure
Sequence of CYP 3A4 (P08684 whole entry, species assumed): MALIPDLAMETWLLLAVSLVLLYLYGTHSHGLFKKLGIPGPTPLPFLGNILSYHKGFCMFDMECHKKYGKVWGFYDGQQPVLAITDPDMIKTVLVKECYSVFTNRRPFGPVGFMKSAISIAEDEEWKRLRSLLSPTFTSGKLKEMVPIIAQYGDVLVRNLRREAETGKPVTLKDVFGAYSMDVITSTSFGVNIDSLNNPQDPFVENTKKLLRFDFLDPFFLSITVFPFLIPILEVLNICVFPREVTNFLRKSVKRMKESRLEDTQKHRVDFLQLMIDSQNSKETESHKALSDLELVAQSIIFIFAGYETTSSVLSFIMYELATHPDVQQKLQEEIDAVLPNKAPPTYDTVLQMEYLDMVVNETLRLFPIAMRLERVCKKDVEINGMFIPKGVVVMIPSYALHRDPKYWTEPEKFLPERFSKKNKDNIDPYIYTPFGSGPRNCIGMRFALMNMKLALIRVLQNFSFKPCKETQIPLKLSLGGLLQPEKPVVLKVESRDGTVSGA

in vitro = conditions: human, human liver microsomes
[5] = rat, in vivo

COc1cccc(C(O)(CCN(C)C)C(c2ccoc2)c2cc3cc(Br)ccc3nc2OC)c1OC (stereo not shown) [Compound 26]
MIC90 (M.tb strain H37Rv [1]): 1.16 µg/mL (≈ 2.09 µM)

COc1nc2ccc(Br)cc2cc1C(c1ccoc1)C(O)(CCN(C)C)c1cccc2c1OCO2 (stereo not shown) [Compound 27]
MIC90 (M.tb strain H37Rv [1]): 0.9 µg/mL (≈ 1.67 µM)

COc1nc2ccc(Br)cc2cc1C(c1ccoc1)C(O)(CCN(C)C)c1ccccn1 (stereo not shown) [Compound 28]
MIC90 (M.tb strain H37Rv [1]): 1.8 µg/mL (≈ 3.63 µM)

COc1ncccc1C(c1cc2cc(Br)ccc2nc1OC)C(O)(CCN(C)C)c1cccc(F)c1 (stereo not shown) [Compound 29]
MIC90 (M.tb strain H37Rv [1]): 0.12 µg/mL (≈ 0.216 µM)

COc1ncccc1[C@H](c1cc2cc(Br)ccc2nc1OC)[C@@](O)(CCN(C)C)c1cccc(C)c1 [Compound 30]
MIC90 (M.tb strain H37Rv [2]): 0.25 µg/mL (≈ 0.454 µM) | MIC90 (M.tb strain H37Rv [3]): 0.13 µg/mL (≈ 0.236 µM)

COc1ncccc1[C@H](c1cc2cc(C#N)ccc2nc1OC)[C@@](O)(CCN(C)C)c1cccc(C)c1 [Compound 31]
MIC90 (M.tb strain H37Rv [2]): 0.15 µg/mL (≈ 0.302 µM) | MIC90 (M.tb strain H37Rv [3]): 0.3 µg/mL (≈ 0.604 µM)

COc1ncccc1[C@H](c1cc2cc(Br)ccc2nc1OC)[C@@](O)(CCN(C)C)c1cccc(C#N)c1 [Compound 33]
MIC90 (M.tb strain H37Rv [2]): 0.75 µg/mL (≈ 1.34 µM) | MIC90 (M.tb strain H37Rv [3]): 0.34 µg/mL (≈ 0.606 µM)

COc1ncccc1[C@H](c1cc2cc(C#N)ccc2nc1OC)[C@@](O)(CCN(C)C)c1cccc(C#N)c1 [Compound 34]
MIC90 (M.tb strain H37Rv [2]): 0.82 µg/mL (≈ 1.62 µM) | MIC90 (M.tb strain H37Rv [3]): 0.38 µg/mL (≈ 0.749 µM)

COc1nc2ccc(Br)cc2cc1[C@@H](c1cccnc1N(C)C)[C@@](O)(CCN(C)C)c1cccc(F)c1 [Compound 35]
MIC90 (M.tb strain H37Rv [2]): 0.2 µg/mL (≈ 0.352 µM) | Clint [4]: 45 µL/min/mg/protein | pIC50 (CYP 3A4): < 4.30 | half-life (in vitro): 15 min | MIC90 (M.tb strain H37Rv [3]): 0.18 µg/mL (≈ 0.317 µM)

COc1nc2ccc(Br)cc2cc1[C@@H](c1ccc(N(C)C)nc1)[C@@](O)(CCN(C)C)c1cccc(F)c1 [Compound 36]
MIC90 (M.tb strain H37Rv [2]): 0.15 µg/mL (≈ 0.264 µM) | Clint [4]: 38 µL/min/mg/protein | F(%) oral bioavailability [5]: 45% | pIC50 (CYP 3A4): < 5.00 | half-life (in vitro): 18 min | MIC90 (M.tb strain H37Rv [3]): 0.08 µg/mL (≈ 0.141 µM)

CCN(CC)c1ccc([C@H](c2cc3cc(Br)ccc3nc2OC)[C@@](O)(CCN(C)C)c2cccc(F)c2)cn1 [Compound 37]
MIC90 (M.tb strain H37Rv [3]): 0.02 µg/mL (≈ 0.0336 µM)

COc1nc2ccc(Br)cc2cc1[C@@H](c1ccc(SC)nc1)[C@@](O)(CCN(C)C)c1cccc(F)c1 [Compound 38]
MIC90 (M.tb strain H37Rv [2]): 0.37 µg/mL (≈ 0.649 µM) | MIC90 (M.tb strain H37Rv [3]): 0.14 µg/mL (≈ 0.245 µM)

CCSc1ccc([C@H](c2cc3cc(Br)ccc3nc2OC)[C@@](O)(CCN(C)C)c2cccc(F)c2)cn1 [Compound 39]
MIC90 (M.tb strain H37Rv [2]): 0.15 µg/mL (≈ 0.257 µM) | Clint [4]: 11 µL/min/mg/protein | F(%) oral bioavailability [5]: 30% | pIC50 (CYP 3A4): 5.00 | half-life (in vitro): 64 min | MIC90 (M.tb strain H37Rv [3]): 0.14 µg/mL (≈ 0.239 µM)

COc1cccc([C@](O)(CCN(C)C)[C@H](c2cncc(C)c2)c2cc3cc(Br)ccc3nc2OC)c1 [Compound 40]
MIC90 (M.tb strain H37Rv [2]): 2.2 µg/mL (≈ 4 µM) | MIC90 (M.tb strain H37Rv [3]): 1.9 µg/mL (≈ 3.45 µM)

COc1nc2ccc(Br)cc2cc1[C@@H](c1cncc(C)c1)[C@@](O)(CCN(C)C)c1cccc(C#N)c1 [Compound 41]
MIC90 (M.tb strain H37Rv [2]): 3.38 µg/mL (≈ 6.2 µM) | MIC90 (M.tb strain H37Rv [3]): 1.32 µg/mL (≈ 2.42 µM)

COc1nc2ccc(Br)cc2cc1[C@@H](c1cncc(C)c1)[C@@](O)(CCN(C)C)c1cccc(F)c1 [Compound 42]
MIC90 (M.tb strain H37Rv [2]): 0.97 µg/mL (≈ 1.8 µM) | Clint [4]: 56 µL/min/mg/protein | F(%) oral bioavailability [5]: 24% | pIC50 (CYP 3A4): 5.34 | half-life (in vitro): 12 min | MIC90 (M.tb strain H37Rv [3]): 0.53 µg/mL (≈ 0.984 µM)

COc1cc([C@H](c2cc3cc(Br)ccc3nc2OC)[C@@](O)(CCN(C)C)c2cccc(F)c2)cnc1OC [Compound 43]
MIC90 (M.tb strain H37Rv [2]): 0.54 µg/mL (≈ 0.924 µM) | Clint [4]: 36 µL/min/mg/protein | F(%) oral bioavailability [5]: 36% | pIC50 (CYP 3A4): < 5.00 | half-life (in vitro): 19 min | MIC90 (M.tb strain H37Rv [3]): 0.47 µg/mL (≈ 0.804 µM)

COc1nc2ccc(Br)cc2cc1[C@@H](c1ccnc(OC)c1OC)[C@@](O)(CCN(C)C)c1cccc(F)c1 [Compound 44]
MIC90 (M.tb strain H37Rv [2]): 0.07 µg/mL (≈ 0.12 µM) | MIC90 (M.tb strain H37Rv [3]): 0.02 µg/mL (≈ 0.0342 µM)

COc1nc2ccc(Br)cc2cc1[C@@H](c1ccnc(OC)c1OC)[C@@](O)(CCN(C)C)c1cccc(C)c1 [Compound 45]
MIC90 (M.tb strain H37Rv [2]): 0.04 µg/mL (≈ 0.0689 µM) | Clint [4]: 13 µL/min/mg/protein | F(%) oral bioavailability [5]: 40% | pIC50 (CYP 3A4): < 5.00 | half-life (in vitro): 52 min | MIC90 (M.tb strain H37Rv [3]): 0.02 µg/mL (≈ 0.0345 µM)

COc1nc2ccc(C#N)cc2cc1[C@@H](c1ccnc(OC)c1OC)[C@@](O)(CCN(C)C)c1cccc(C)c1 [Compound 46]
MIC90 (M.tb strain H37Rv [2]): 0.14 µg/mL (≈ 0.266 µM) | MIC90 (M.tb strain H37Rv [3]): 0.15 µg/mL (≈ 0.285 µM)

COc1cccc([C@](O)(CCN(C)C)[C@@H](c2cc3cc(Br)ccc3nc2OC)c2ccnc(OC)c2OC)c1 [Compound 47]
anti-M.tb activity (in words) (M.tb strain H37Rv [3]): retain the potency of 1 | MIC90 (M.tb strain H37Rv [3]): < 0.02 µg/mL

COc1nc2ccc(Br)cc2cc1[C@@H](c1ccnc(OC)c1OC)[C@@](O)(CCN(C)C)c1cccc(OC(F)F)c1 [Compound 48]
Clint [4]: 11 µL/min/mg/protein | pIC50 (CYP 3A4): < 5.00 | half-life (in vitro): 61 min | anti-M.tb activity (in words) (M.tb strain H37Rv [3]): retain the potency of 1 | MIC90 (M.tb strain H37Rv [3]): < 0.02 µg/mL

COc1nc2ccc(Br)cc2cc1[C@@H](c1ccnc(OC)c1OC)[C@@](O)(CCN(C)C)c1cccc(C#N)c1 [Compound 49]
MIC90 (M.tb strain H37Rv [2]): 0.21 µg/mL (≈ 0.355 µM) | Clint [4]: 19 µL/min/mg/protein | F(%) oral bioavailability [5]: 68% | oral bioavailability (in words) [5]: comparable to that of 1 | pIC50 (CYP 3A4): < 5.00 | half-life (in vitro): 37 min | MIC90 (M.tb strain H37Rv [3]): 0.13 µg/mL (≈ 0.22 µM)

COc1cccc([C@](O)(CCN(C)C)[C@@H](c2cc3cc(Br)ccc3nc2OC)c2ccnc(OC)c2OC)c1OC [Compound 50]
MIC90 (M.tb strain H37Rv [1]): 0.21 µg/mL (≈ 0.335 µM)
